The record followed here is patent US12319721B2 (Purdue Research Foundation, priority 2018, dated 2025).

Assay [1] relates to healed fractured femur. In words: Femur fracture model, postmortem four-point bend of the healed femur. The format is in vivo, Swiss Webster mice. The settings on record: 16 days, 0.1, 1 and 10 nmol daily subcutaneous, n=5.
Assay [2] relates to fracture callus of fractured femur. In words: Femur fracture model, microCT of the fracture callus (BV/TV, BV, TbTh, TbSp). Type of assay: in vivo, Swiss Webster mice. The source says: All in vivo data included herein are from Swiss Webster mice. […] 1×concentration represents 1 nmol/day, 10× represents 10 nmol/day, 100×represents 100 nmol/day and most studies have an n of 5.
The term “BV/TV” means the bone volume divided by total volume of the 100 thickest micro CT slices of the fracture callus.
The term “TbTh” means the trabecular thickness of the 100 thickest micro CT slices of the fracture callus.
The term “[…]” means the overall bone volume of the 100 thickest micro CT slices of the fracture callus.
The term “TbSp” means the spacing between the trabecula in the 100 thickest micro CT slices of the fracture callus.
The targeted conjugates were synthesized using standard Fmoc solid-phase peptide synthesis, as described above. To ensure the conjugates' activity, mouse pre osteo-blast (MCTC3-1) cells were treated with the targeted and untargeted compounds for three days at concentrations from 1 pM to 100 nM. After three days of treatment, the cells were harvested, and the ribonucleic acid (RNA) was purified from the cells. Expression levels of ALP, RUNx2, OSX, osteo-pontin (OPN), collagen 1A (Col-1A), OPG, RANKL, scle-rostin gene (SOST), and OC were quantified via quantitative reverse transcription polymerase chain reaction (RT-qPCR). Once the biological activity of the conjugates was confirmed, they were tested in vivo in a fracture model. Aseptic surgical techniques were used to place a 23-gage needle as in intramedullary nail in the femur of anesthetized, 12-week-old Swiss Webster mice for internal fixation before fracture. Femur fractures were induced using a drop weight fracture device from RISystem. The mice received buprenorphine for three days post fracture. […] Fracture healing was assessed using microCT (Scanco Medical Ag). Morphometric parameters were quantified in the 100 widest slices of the fracture callus. Trabecular thickness (TbTh), trabecular spacing (TbSp), total volume (TV), and volume of calcified callus (BV) were calculated. Fractured femurs were tested for strength in a four-point bend to failure using an Electro Force TestBench (TA Instruments). Lower supports were 10 mm apart on the anterior face of the femur in contact with the proximal and distal diaphysis. Upper supports were 4 mm apart and spanned the entire fracture callus on the diaphysis. Force was applied from the posterior face of the femur with a displacement rate of 0.3 mm/sec. Peak load, yield load, stiffness, displacement post yield, work to fracture, and deformation data were generated. Statistical analysis was performed using a two-way analysis of variance (ANOVA) and a Tukey post-hoc analysis with significance reported at the 95% confidence level. All animal experiments were performed in accordance with protocols approved by Purdue University's Institutional Animal Care and Use Committee (IACUC).

Assay [3] concerns healed fractured femur. In words: Femur fracture model, postmortem four-point bend of the healed femur. Type of assay: in vivo, Swiss Webster mice. The settings on record: for Max load (bone strength) / Work to fracture (bone strength): n=5. The source says: All in vivo data included herein are from Swiss Webster mice. All mice received an osteotomy on their right femur and received subcutaneous drug administration daily for either 2, 3 or 4 weeks, as indicated, for each compound. 1×concentration represents 1 nmol/day, 10× represents 10 nmol/day, 100×represents 100 nmol/day and most studies have an n of 5.
The term “Peak Load” means a postmortem 4 point bend of the healed femur. Peak load represents the maximum force the healed femur withstood before it refractured.
(§1) The targeted conjugates were synthesized using standard Fmoc solid-phase peptide synthesis, as described above. To ensure the conjugates' activity, mouse pre osteo-blast (MCTC3-1) cells were treated with the targeted and untargeted compounds for three days at concentrations from 1 pM to 100 nM. After three days of treatment, the cells were harvested, and the ribonucleic acid (RNA) was purified from the cells. Expression levels of ALP, RUNx2, OSX, osteo-pontin (OPN), collagen 1A (Col-1A), OPG, RANKL, scle-rostin gene (SOST), and OC were quantified via quantitative reverse transcription polymerase chain reaction (RT-qPCR). Once the biological activity of the conjugates was confirmed, they were tested in vivo in a fracture model. Aseptic surgical techniques were used to place a 23-gage needle as in intramedullary nail in the femur of anesthetized, 12-week-old Swiss Webster mice for internal fixation before fracture. Femur fractures were induced using a drop weight fracture device from RISystem. The mice received buprenorphine for three days post fracture. The mice were dosed subcutaneously each day for two weeks, three weeks, 4 weeks, or 17 days. Fracture healing was assessed using microCT (Scanco Medical Ag). Morphometric parameters were quantified in the 100 widest slices of the fracture callus. Trabecular thickness (TbTh), trabecular spacing (TbSp), total volume (TV), and volume of calcified callus (BV) were calculated. Fractured femurs were tested for strength in a four-point bend to failure using an Electro Force TestBench (TA Instruments). Lower supports were 10 mm apart on the anterior face of the femur in contact with the proximal and distal diaphysis. Upper supports were 4 mm apart and spanned the entire fracture callus on the diaphysis. Force was applied from the posterior face of the femur with a displacement rate of 0.3 mm/sec. Peak load, yield load, stiffness, displacement post yield, work to fracture, and deformation data were generated. Statistical analysis was performed using a two-way analysis of variance (ANOVA) and a Tukey post-hoc analysis with significance reported at the 95% confidence level. All animal experiments were performed in accordance with protocols approved by Purdue University's Institutional Animal Care and Use Committee (IACUC).

The subject of assay [4] is fracture callus of fractured femur. The experiment in a line: Femur fracture model, microCT of the fracture callus, CD-1 mice. The format is in vivo, CD-1 male mice. The settings on record: 4 weeks, 50 nmol daily subcutaneous (50×), n=10. The protocol:
The targeted conjugates were synthesized using standard Fmoc solid-phase peptide synthesis, as described above. To ensure the conjugates' activity, mouse pre osteo-blast (MCTC3-1) cells were treated with the targeted and untargeted compounds for three days at concentrations from 1 pM to 100 nM. After three days of treatment, the cells were harvested, and the ribonucleic acid (RNA) was purified from the cells. Expression levels of ALP, RUNx2, OSX, osteo-pontin (OPN), collagen 1A (Col-1A), OPG, RANKL, scle-rostin gene (SOST), and OC were quantified via quantitative reverse transcription polymerase chain reaction (RT-qPCR). Once the biological activity of the conjugates was confirmed, they were tested in vivo in a fracture model. Aseptic surgical techniques were used to place a 23-gage needle as in intramedullary nail in the femur of anesthetized, 12-week-old Swiss Webster mice for internal fixation before fracture. Femur fractures were induced using a drop weight fracture device from RISystem. The mice received buprenorphine for three days post fracture. […] Fracture healing was assessed using microCT (Scanco Medical Ag). Morphometric parameters were quantified in the 100 widest slices of the fracture callus. Trabecular thickness (TbTh), trabecular spacing (TbSp), total volume (TV), and volume of calcified callus (BV) were calculated. […]

For assay [5], the system named is healed fractured femur. The experiment in a line: Femur fracture model, postmortem four-point bend of the healed femur, CD-1 mice. Type of assay: in vivo, CD-1 male mice. Particulars: 4 weeks, 50 nmol daily subcutaneous (50×), n=10. As for the experimental part:
as §1, with “Statistical analysis was performed using a two-way analysis of variance (ANOVA) and a Tukey post-hoc analysis with significance reported at the 95% confidence level. All animal experiments were performed in accordance with protocols approved by Purdue University's Institutional Animal Care and Use Committee (IACUC).” left out

[6] abbreviates: 3 weeks, 0.1, 1 and 10 nmol daily subcutaneous.
Setting [7] is: 3 weeks, 1, 10 and 100 nmol daily subcutaneous, n=5.
Where [8] appears, read: 3 weeks, 1, 10 and 100 nmol daily subcutaneous.
[9] abbreviates: 2 weeks, various concentrations 1-100 nmol/day, subcutaneous daily.

Where no end group is shown, it is not given here. mp4 = 4 mini PEG linker

For “Annexin_mp4_(D)E10: Annexin 1 N-terminal fragment with 10 glutamic acids, SEQ ID NO: 26, FIG. 81 (Ac-AMVSEFLKQAWFIENEEQEYVQTVY-{mini PEG-mini PEG-mini PEG-mini PEG-dE-dE-dE-dE-dE-dE-dE-dE-dE-dE})”, in assay [1], the “Max load (bone strength)” value is recorded as “raises bone strength” and the “Work to fracture (bone strength)” value is “raises bone strength”.

For “F2A_mp4_(D)E10: two copies of FGF2 receptor targeting sequence YRSRKYSSWYVALKR branching from a lysine, 4 mini pegs, 10 D glutamic acids”, the “BV/TV (bone density)” value in assay [2] (setting [6]) was “raises bone density”. For the same substance, the “BV (bone volume, bone mineralization)” value in assay [2] (3 weeks, 0.1, 1 and 10 nmol daily subcutaneous, n=5) is on record as “raises bone mineralization”. In addition, in assay [3] (setting [6]), the “Max load (bone strength)” value is on record as “raises bone strength” and the “Work to fracture (bone strength)” value was “raises bone strength”.

On to “Preptin(1-34)_mp4_(D)E10: Preptin (1-34) with mp4 linker and 10 glutamic acids, SEQ ID NO: 24, FIG. 70 ({dE-dE-dE-dE-dE-dE-dE-dE-dE-dE-mp4}-VRGASQRWTDYQFFGVPYRPFDPLVAQSTSVD)”, for which, in assay [4], the “BV (bone volume, bone mineralization)” value was “significantly raises bone mineralization” and the “BV/TV (bone density)” value is listed as “significantly raises bone density”. In assay [5], the “Max load (bone strength)” value is on record as “significantly raises bone strength”, the “Post yield displacement (bone brittleness)” value was “significantly reduces the bone brittleness” and the “Work to fracture (bone strength)” value is given as “significantly raises bone strength”.

Consider “F119_mp4 (D)E10: heparin binding fragment 119-135 of FGF2 with mp4 linker and 10 glutamic acids, SEQ ID NO: 20, FIG. 84 (KRTGQYKLGSKTGPGQK; mp4 linker, 10 D-glutamic acids; SITE 17 C-term Lysine modified with 4 mini PEG linker-d(Glutamic acid)10 moiety)”, for which, in assay [2] (setting [7]), the “BV (bone volume, bone mineralization)” value is listed as “raises bone mineralization” and the “BV/TV (bone density)” value is given as “raises bone density”. In assay [3] (setting [8]), the “Max load (bone strength)” value was “raises bone strength” and the “Work to fracture (bone strength)” value is listed as “raises bone strength”.

For “BFP-D10: bone forming peptide conjugated with 10 aspartate acids, SEQ ID NO: 1, DDDDDDDDDDGQGFSYPYKA VFSTQ (DDDDDDDDDDGQGFSYPYKAVFSTQ; 10 aspartates)”, in assay [2] (setting [9]), the BV/TV entry is “dose dependent manner” and the TbSp result was “dose dependent manner”. In addition, the “Peak load of fractured femurs (ranking, compared to PBS)” value in assay [3] (after 2 weeks, 100 nmol/day (100×)) is “obtained the maximum peak load”.
